Source: ChEMBL document CHEMBL4308841, “Synthesis, in vitro antiproliferative activity, and kinase inhibitory effects of pyrazole-containing diarylureas and diarylamides” (Eur J Med Chem, 2018)

What was measured:
HT-29 [1] = assay: Growth inhibition of human HT-29 cells incubated for 48 hrs by sulforhodamine B assay; type: functional, cell-based; conditions: HT-29, 48 h
HOP-62 [2] = assay: Growth inhibition of human HOP62 cells assessed as cell growth at 0.01 uM incubated for 48 hrs by sulforhodamine B assay relative to control; type: functional; conditions: HOP-62, 48 h, read-out: Activity
OVCAR-8 = assay: Growth inhibition of human OVCAR8 cells assessed as cell growth at 0.01 uM incubated for 48 hrs by sulforhodamine B assay relative to control; type: functional; conditions: OVCAR-8, 48 h, read-out: Activity
OVCAR-3 = assay: Growth inhibition of human OVCAR3 cells incubated for 48 hrs by sulforhodamine B assay; type: functional, cell-based; conditions: OVCAR-3, 48 h
SF-295 = assay: Growth inhibition of human SF295 cells assessed as cell growth at 0.1 uM incubated for 48 hrs by sulforhodamine B assay relative to control; type: functional; conditions: SF-295, 48 h, read-out: Activity
M14 = assay: Growth inhibition of human M14 cells incubated for 48 hrs by sulforhodamine B assay; type: functional, cell-based; conditions: M14, 48 h
K562 [3] = assay: Growth inhibition of human K562 cells assessed as cell growth at 1 uM incubated for 48 hrs by sulforhodamine B assay relative to control; type: functional; conditions: K562, 48 h, read-out: Activity
MDA-MB-435 [4] = assay: Growth inhibition of human MDA-MB-435 cells assessed as cell growth at 0.01 uM incubated for 48 hrs by sulforhodamine B assay relative to control; type: functional; conditions: MDA-MB-435, 48 h, read-out: Activity
HCC 2998 [5] = assay: Growth inhibition of human HCC2998 cells assessed as cell growth at 0.1 uM incubated for 48 hrs by sulforhodamine B assay relative to control; type: functional; conditions: HCC 2998, 48 h, read-out: Activity
A498 = assay: Growth inhibition of human A498 cells incubated for 48 hrs by sulforhodamine B assay; type: functional, cell-based; conditions: A498, 48 h
MOLT-4 [6] = assay: Growth inhibition of human MOLT4 cells assessed as cell growth at 0.1 uM incubated for 48 hrs by sulforhodamine B assay relative to control; type: functional; conditions: MOLT-4, 48 h, read-out: Activity
MOLT-4 [7] = assay: Growth inhibition of human MOLT4 cells assessed as cell growth at 100 uM incubated for 48 hrs by sulforhodamine B assay relative to control; type: functional; conditions: MOLT-4, 48 h, read-out: Activity
NCI-H522 [8] = assay: Growth inhibition of human NCI-H522 cells incubated for 48 hrs by sulforhodamine B assay; type: functional, cell-based; conditions: NCI-H522, 48 h
K562 [9] = assay: Growth inhibition of human K562 cells assessed as cell growth at 0.1 uM incubated for 48 hrs by sulforhodamine B assay relative to control; type: functional; conditions: K562, 48 h, read-out: Activity
SK-MEL-2 = assay: Growth inhibition of human SK-MEL-2 cells incubated for 48 hrs by sulforhodamine B assay; type: functional, cell-based; conditions: SK-MEL-2, 48 h
MDA-MB-468 [10] = assay: Growth inhibition of human MDA-MB-468 cells assessed as cell growth at 0.1 uM incubated for 48 hrs by sulforhodamine B assay relative to control; type: functional; conditions: MDA-MB-468, 48 h, read-out: Activity
MDA-MB-468 [11] = assay: Growth inhibition of human MDA-MB-468 cells assessed as cell growth at 100 uM incubated for 48 hrs by sulforhodamine B assay relative to control; type: functional; conditions: MDA-MB-468, 48 h, read-out: Activity
HCC 2998 [12] = assay: Growth inhibition of human HCC2998 cells assessed as cell growth at 100 uM incubated for 48 hrs by sulforhodamine B assay relative to control; type: functional; conditions: HCC 2998, 48 h, read-out: Activity
HOP-62 [13] = assay: Growth inhibition of human HOP62 cells assessed as cell growth at 1 uM incubated for 48 hrs by sulforhodamine B assay relative to control; type: functional; conditions: HOP-62, 48 h, read-out: Activity
HCT-15 = assay: Growth inhibition of human HCT15 cells assessed as cell growth at 0.1 uM incubated for 48 hrs by sulforhodamine B assay relative to control; type: functional; conditions: HCT-15, 48 h, read-out: Activity
KM12 = assay: Growth inhibition of human KM12 cells assessed as cell growth at 1 uM incubated for 48 hrs by sulforhodamine B assay relative to control; type: functional; conditions: KM12, 48 h, read-out: Activity
HT-29 [14] = assay: Growth inhibition of human HT-29 cells assessed as cell growth at 100 uM incubated for 48 hrs by sulforhodamine B assay relative to control; type: functional; conditions: HT-29, 48 h, read-out: Activity
MDA-MB-435 [15] = assay: Growth inhibition of human MDA-MB-435 cells assessed as cell growth at 100 uM incubated for 48 hrs by sulforhodamine B assay relative to control; type: functional; conditions: MDA-MB-435, 48 h, read-out: Activity
UO-31 = assay: Growth inhibition of human UO31 cells assessed as cell growth at 1 uM incubated for 48 hrs by sulforhodamine B assay relative to control; type: functional; conditions: UO-31, 48 h, read-out: Activity
SR = assay: Growth inhibition of human SR cells assessed as cell growth at 0.1 uM incubated for 48 hrs by sulforhodamine B assay relative to control; type: functional; conditions: read-out: Activity
NCI-H522 [16] = assay: Growth inhibition of human NCI-H522 cells assessed as cell growth at 10 uM incubated for 48 hrs by sulforhodamine B assay relative to control; type: functional; conditions: NCI-H522, 48 h, read-out: Activity
K562 [17] = assay: Growth inhibition of human K562 cells assessed as cell growth at 100 uM incubated for 48 hrs by sulforhodamine B assay relative to control; type: functional; conditions: K562, 48 h, read-out: Activity
DU-145 = assay: Growth inhibition of human DU145 cells assessed as cell growth at 1 uM incubated for 48 hrs by sulforhodamine B assay relative to control; type: functional; conditions: DU-145, 48 h, read-out: Activity
[18] = read-out: LC50 (the source's name)
[19] = read-out: pLC50 (the source's name) (converted)

O=C(Nc1cccc(-n2cc(-c3ccncc3)c(-c3cc(O)cc(Cl)c3)n2)c1)c1cc(C(F)(F)F)cc(C(F)(F)F)c1
GI50 (HT-29 [1]; read-out: GI50): 2.5 µM | CC50 (HT-29 [1]; [18]): > 100 µM | TGI (HT-29 [1]; read-out: TGI): 37.7 µM | GI50 (HT-29 [1]; read-out: pGI50 (converted)): 2.51 µM | CC50 (HT-29 [1]; [19]): > 100 µM | TGI (HT-29 [1]; read-out: pTGI (converted)): 38 µM | growth at 0.01 µM (HOP-62 [2]): 103% | growth at 0.01 µM (OVCAR-8): 98% | IC50 (OVCAR-3): 3.28 µM | GI50 (OVCAR-3; read-out: GI50): 3.28 µM | CC50 (OVCAR-3; [18]): > 100 µM | TGI (OVCAR-3; read-out: TGI): 25.7 µM | GI50 (OVCAR-3; read-out: pGI50 (converted)): 3.31 µM | CC50 (OVCAR-3; [19]): > 100 µM | TGI (OVCAR-3; read-out: pTGI (converted)): 10.2 µM | growth at 0.1 µM (SF-295): 89% | GI50 (M14; read-out: GI50): 3.01 µM | CC50 (M14; [18]): > 100 µM | TGI (M14; read-out: TGI): > 100 µM | GI50 (M14; read-out: pGI50 (converted)): 3.02 µM | CC50 (M14; [19]): > 100 µM | TGI (M14; read-out: pTGI (converted)): > 100 µM | growth at 1 µM (K562 [3]): 85% | growth at 0.01 µM (MDA-MB-435 [4]): 91% | growth at 0.1 µM (HCC 2998 [5]): 95% | GI50 (A498; read-out: GI50): 4.75 µM | CC50 (A498; [18]): > 100 µM | TGI (A498; read-out: TGI): 90.8 µM | GI50 (A498; read-out: pGI50 (converted)): 4.79 µM | CC50 (A498; [19]): > 100 µM | TGI (A498; read-out: pTGI (converted)): 91.2 µM | growth at 0.1 µM (MOLT-4 [6]): 89% | growth at 100 µM (MOLT-4 [7]): 3% | GI50 (NCI-H522 [8]; read-out: GI50): 1.5 µM | CC50 (NCI-H522 [8]; [18]): > 100 µM | TGI (NCI-H522 [8]; read-out: TGI): 83.7 µM | GI50 (NCI-H522 [8]; read-out: pGI50 (converted)): 1.58 µM | CC50 (NCI-H522 [8]; [19]): > 100 µM | TGI (NCI-H522 [8]; read-out: pTGI (converted)): 8.32 µM | growth at 0.1 µM (K562 [9]): 89% | GI50 (SK-MEL-2; read-out: GI50): 3.28 µM | CC50 (SK-MEL-2; [18]): > 100 µM | TGI (SK-MEL-2; read-out: TGI): 95.1 µM | GI50 (SK-MEL-2; read-out: pGI50 (converted)): 3.31 µM | CC50 (SK-MEL-2; [19]): > 100 µM | TGI (SK-MEL-2; read-out: pTGI (converted)): 9.55 µM | growth at 0.1 µM (MDA-MB-468 [10]): 95% | growth at 100 µM (MDA-MB-468 [11]): 2% | growth at 100 µM (HCC 2998 [12]): -34% | growth at 1 µM (HOP-62 [13]): 100% | growth at 0.1 µM (HCT-15): 90% | growth at 1 µM (KM12): 79% | growth at 100 µM (HT-29 [14]): -5% | growth at 100 µM (MDA-MB-435 [15]): 3% | growth at 1 µM (UO-31): 71% | growth at 0.1 µM (SR): 94% | growth at 10 µM (NCI-H522 [16]): 17.8% | growth at 100 µM (K562 [17]): 7% | growth at 1 µM (DU-145): 93%

COc1cc(Cl)cc(-c2nn(-c3cccc(NC(=O)c4ccc(Cl)c(Cl)c4)c3)cc2-c2ccncc2)c1
growth at 10 µM (NCI-H522 [16]): 53.7%
